Drawing on patent publication US20260347347A1, “2-AZA-AND 2-OXABICYCLO[2.1.1]HEXANE DERIVATIVES AS FACTOR XIIA ENZYME INHIBITORS” (KALVISTA PHARMACEUTICALS LIMITED, priority 2022, published 2026), this text covers IC50 for 14 compounds.

This assay addresses T1, Human Factor XIIa (Homo sapiens, UniProt P00748).
T1 construct: purchased Enzyme Research Laboratories
T1 sequence (P00748 373-615 limits assumed): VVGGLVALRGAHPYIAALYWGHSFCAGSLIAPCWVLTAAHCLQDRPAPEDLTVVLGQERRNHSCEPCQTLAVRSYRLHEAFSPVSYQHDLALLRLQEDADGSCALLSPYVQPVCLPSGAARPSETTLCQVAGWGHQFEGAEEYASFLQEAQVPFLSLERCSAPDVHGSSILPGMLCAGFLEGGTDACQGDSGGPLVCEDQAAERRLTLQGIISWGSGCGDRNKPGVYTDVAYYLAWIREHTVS
T1 sequence (P00748 20-372 partner limits assumed): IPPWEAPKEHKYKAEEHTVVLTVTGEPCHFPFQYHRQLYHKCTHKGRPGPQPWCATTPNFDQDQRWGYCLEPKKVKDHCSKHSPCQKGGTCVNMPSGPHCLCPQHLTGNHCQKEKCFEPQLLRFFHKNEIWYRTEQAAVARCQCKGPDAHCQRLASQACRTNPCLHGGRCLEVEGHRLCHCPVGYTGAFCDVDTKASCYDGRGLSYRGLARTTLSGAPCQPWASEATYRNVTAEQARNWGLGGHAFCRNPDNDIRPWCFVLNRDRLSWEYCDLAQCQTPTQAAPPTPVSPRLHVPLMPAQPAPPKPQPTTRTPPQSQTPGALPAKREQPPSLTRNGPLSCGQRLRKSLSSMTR
As to the kind of experiment: Determination of FXIIa inhibition (in vitro IC50 assay, fluorogenic substrate H-DPro-Phe-Arg-AFC). The assay is classed as biochemical. The following applies: human Factor XIIa; fluorogenic substrate H-DPro-Phe-Arg-AFC at Km concentration; 5 min, 25 °C; class symbols; read-out: Human FXIIa IC50. In short, it runs like this: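 Human FXIIa incubated at 25 °C with compound and H-DPro-Phe-Arg-AFC at its Km concentration. Linear fluorescence increase monitored over 5 min, expressed as % of uninhibited activity; IC50 is concentration giving 50% inhibition.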

For orientation: IC50 means the concentration needed to halve the response being measured. On to `Cn1ccc(OCC23CC(CNc4cccc5c(N)nccc45)(CN2C(=O)CC2CCCCC2)C3)cc1=O` [Example 103, 4-((4-(((1-aminoisoquinolin-5-yl)amino)methyl)-2-(2-cyclohexylacetyl)-2-azabicyclo[2.1.1]hexan-1-yl)methoxy)-1-methylpyridin-2(1H)-one], for which the IC50 lay within 300 to 1000 nM.
The same measure for `C[C@H](c1ccccc1)N(C)C(=O)N1CC2(COc3ccn(C)c(=O)c3)CC1(CNc1cccc3c(N)nccc13)C2` [Example 43, (R)-1-(((1-aminoisoquinolin-5-yl)amino)methyl)-N-methyl-4-(((1-methyl-2-oxo-1,2-dihydropyridin-4-yl)oxy)methyl)-N-(1-phenylethyl)-2-azabicyclo[2.1.1]hexane-2-carboxamide]: 1 to 10 nM; for `Cn1ccc(OCC23CN(C(=O)N4CC[C@@H](c5ccccc5)C4)C(CNc4cccc5c(N)nccc45)(C2)C3)cc1=O` [Example 44, (S)-4-((1-(((1-aminoisoquinolin-5-yl)amino)methyl)-2-(3-phenylpyrrolidine-1-carbonyl)-2-azabicyclo[2.1.1]hexan-4-yl)methoxy)-1-methylpyridin-2(1H)-one]: 1 to 10 nM; for `Cn1ccc(OCC23CN(C(=O)N4CC5(CCC5)C4)C(CNc4cccc5c(N)nccc45)(C2)C3)cc1=O` [Example 51, 4-((1-(((1-aminoisoquinolin-5-yl)amino)methyl)-2-(2-azaspiro[3.3]heptane-2-carbonyl)-2-azabicyclo[2.1.1]hexan-4-yl)methoxy)-1-methylpyridin-2(1H)-one]: 10 to 100 nM.
Under `Cn1ccc(OCC23CN(C(=O)C4(c5ccccc5)CC4)C(CNc4cccc5c(N)nccc45)(C2)C3)cc1=O` [Example 18, 4-((1-(((1-aminoisoquinolin-5-yl)amino)methyl)-2-(1-phenylcyclopropane-1-carbonyl)-2-azabicyclo[2.1.1]hexan-4-yl)methoxy)-1-methylpyridin-2(1H)-one] stands 100 to 300 nM.
The same measure for `Cn1ccc(OCC23CN(C(=O)Cc4ccc5c(c4)CCO5)C(CNc4cccc5c(N)nccc45)(C2)C3)cc1=O` [Example 3, 4-((1-(((1-aminoisoquinolin-5-yl)amino)methyl)-2-(2-(2,3-dihydrobenzofuran-5-yl)acetyl)-2-azabicyclo[2.1.1]hexan-4-yl)methoxy)-1-methylpyridin-2(1H)-one]: 1 to 10 nM.
For `CO[C@H]1CC[C@H](CC(=O)N2CC3(COc4cc(C)n(C)c(=O)c4)CC2(CNc2cccc4c(N)nccc24)C3)CC1` (single isomer, unassigned) [Example 24, 4-((1-(((1-aminoisoquinolin-5-yl)amino)methyl)-2-(2-((1r,4r)-4-methoxycyclohexyl)acetyl)-2-azabicyclo[2.1.1]hexan-4-yl)methoxy)-1,6-dimethylpyridin-2(1H)-one], the IC50 was 10 to 100 nM.
On to `Cc1cc(OCC23CN(C(=O)N(C)C[C@@H]4CCOC4)C(CNc4cccc5c(N)nccc45)(C2)C3)cc(=O)n1C` [Example 47, (S)-1-(((1-aminoisoquinolin-5-yl)amino)methyl)-4-(((1,6-dimethyl-2-oxo-1,2-dihydropyridin-4-yl)oxy)methyl)-N-methyl-N-((tetrahydrofuran-3-yl)methyl)-2-azabicyclo[2.1.1]hexane-2-carboxamide], for which the IC50 fell in the range of 10 to 100 nM.
`Cc1cc(OCC23CN(C(=O)N4CCCC5(CC5)C4)C(CNc4cccc5c(N)nccc45)(C2)C3)cc(=O)n1C` [Example 84, 4-((1-(((1-aminoisoquinolin-5-yl)amino)methyl)-2-(5-azaspiro[2.5]octane-5-carbonyl)-2-azabicyclo[2.1.1]hexan-4-yl)methoxy)-1,6-dimethylpyridin-2(1H)-one]: the IC50 lay within 10 to 100 nM.
The same measure for `Cn1ccc(OCC23CN(C(=O)N4CCOc5ccccc54)C(CNc4cccc5c(N)nccc45)(C2)C3)cc1=O` [Example 35, 4-((1-(((1-aminoisoquinolin-5-yl)amino)methyl)-2-(3,4-dihydro-2H-benzo[b][1,4]oxazine-4-carbonyl)-2-azabicyclo[2.1.1]hexan-4-yl)methoxy)-1-methylpyridin-2(1H)-one]: 10 to 100 nM; for `Cn1ccc(OCC23CN(C(=O)NC(C)(C)c4ccccc4)C(CNc4cccc5c(N)nccc45)(C2)C3)cc1=O` [Example 66, 1-(((1-Aminoisoquinolin-5-yl)amino)methyl)-4-(((1-methyl-2-oxo-1,2-dihydropyridin-4-yl)oxy)methyl)-N-(2-phenylpropan-2-yl)-2-azabicyclo[2.1.1]hexane-2-carboxamide]: 1 to 10 nM.
Under `Cc1cc(OCC23CN(C4=NCCO4)C(CNc4cccc5c(N)nccc45)(C2)C3)cc(=O)n1C` [Example 97, 4-((1-(((1-Aminoisoquinolin-5-yl)amino)methyl)-2-(4,5-dihydrooxazol-2-yl)-2-azabicyclo[2.1.1]hexan-4-yl)methoxy)-1,6-dimethylpyridin-2(1H)-one] stands 10 to 100 nM; under `Cn1ccc(OCC23CN(C(=O)N4CCc5ccccc5C4)C(CNc4cccc5c(N)nccc45)(C2)C3)cc1=O` [Example 37, 4-((1-(((1-aminoisoquinolin-5-yl)amino)methyl)-2-(1,2,3,4-tetrahydroisoquinoline-2-carbonyl)-2-azabicyclo[2.1.1]hexan-4-yl)methoxy)-1-methylpyridin-2(1H)-one], 100 to 300 nM.
As for `Cn1ccc(OCC23CN(C(=O)N[C@@H](c4ccccc4)C(F)(F)F)C(CNc4cccc5c(N)nccc45)(C2)C3)cc1=O` [Example 88, (S)-1-(((1-aminoisoquinolin-5-yl)amino)methyl)-4-(((1-methyl-2-oxo-1,2-dihydropyridin-4-yl)oxy)methyl)-N-(2,2,2-trifluoro-1-phenylethyl)-2-azabicyclo [2.1.1]hexane-2-carboxamide], the IC50 lay within 10 to 100 nM.
